Experimental data: US20240174690A1, “ANNULATED 2-AMINO-3-CYANO THIOPHENES AND DERIVATIVES FOR THE TREATMENT OF CANCER” (BOEHRINGER INGELHEIM INTERNATIONAL GMBH, priority 2021, published 2024)
Where two headings read alike, the source gives them in different places.

Key:
[1] = test system: MKN1 cells; test: MKN1 CTG proliferation assay (120 h) (gastric cancer, wt amplified); type: cell-based; conditions: Homo sapiens
Protocol: MKN1 CTG Proliferation Assay (120 h) (Gastric Cancer, Wt Amplified)
MKN1 cells (JCRB0252) are dispensed into white 384-well plates, flat and white bottom (Corning Costar, PNr.: 3570) at a density of 400 cells per well in 50 μL RPMI 1640 (PAN-Biotech, PNr.: P04-18047)+10% FCS (HyClone, PNr.: SH30084.03) (assay 1) or into white 384-well plates, flat and white bottom (Perkin Elmer, 6007680) at a density of 500 cells per well in 40 μl RPMI (Gibco, PNr.: 21875034)+10% FCS (HyClone, PNr.: SH30084.03) (assay 2) or into black 384-well plates, flat and clear bottom (Greiner, PNr. 781091) at a density of 200 cells per well in 60 μl RPMI-1640 (Gibco #A10491)+10% FCS (HyClone, PNr.: SH30084.03)+PenStrep (Gibco, PNr.15140-122) (assay 3). […] Compounds (10 mM stock in DMSO) are added at logarithmic dose series using the HP Digital Dispenser D300 (Tecan) (assay 1+2) or the ECHO acoustic liquid handler system (Beckman Coulter) (assay 3), including DMSO controls and normalizing for added DMSO. Plates are incubated for 120 h, and cell viability is measured using CellTiter-Glo luminescent cell viability reagent (Promega product code G7570). Viability (stated as percent of control) is defined as relative luminescence units RLU of each well divided by the RLU of cells in DMSO controls. IC50 values are determined from viability measurements by non-linear regression using a four-parameter model.

[2] = target: CYP3A4 (Homo sapiens (Human), UniProt P08684); test: Mechanism based inhibition of CYP3A4 assay (MBI 3A4); type: in vitro ADME; conditions: hydroxy-midazolam formation after 30 min vs 0 min preincubation, 25 uM, human liver microsomes
Chain of CYP3A4 (P08684 whole entry): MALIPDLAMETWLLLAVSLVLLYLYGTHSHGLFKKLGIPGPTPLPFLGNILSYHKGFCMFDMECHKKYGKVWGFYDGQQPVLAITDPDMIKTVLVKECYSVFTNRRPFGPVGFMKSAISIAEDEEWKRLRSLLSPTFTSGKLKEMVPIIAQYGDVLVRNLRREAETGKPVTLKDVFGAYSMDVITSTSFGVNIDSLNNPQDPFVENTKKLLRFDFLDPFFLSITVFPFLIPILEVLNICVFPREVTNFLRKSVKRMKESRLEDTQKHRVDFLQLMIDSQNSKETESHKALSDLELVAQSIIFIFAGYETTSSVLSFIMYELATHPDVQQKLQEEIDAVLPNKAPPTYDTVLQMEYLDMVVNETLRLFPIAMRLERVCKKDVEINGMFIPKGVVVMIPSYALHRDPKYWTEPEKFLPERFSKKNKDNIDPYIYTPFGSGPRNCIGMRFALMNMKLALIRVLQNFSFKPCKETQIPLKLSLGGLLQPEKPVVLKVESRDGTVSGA
Outline: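 Human CYP3A4 activity after 30 min vs 0 min preincubation with test compound; incubate then diluted 1:10 and midazolam added for a 15 min main incubation. Quenched with acetonitrile; hydroxy-midazolam quantified by LC/MS-MS and expressed as % of the 0 min preincubation formation.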

[3] = MKN-1, assay 3, CTG 120 h, read-out: MKN1 (assay 3) IC50
[4] = MKN-1, assay 2, CTG 120 h, read-out: MKN1 (assay 2) IC50
[5] = MKN-1, assay 1, CTG 120 h, read-out: MKN1 (assay 1) IC50

Row | IC50 [1, 3] [nM] | MBI 3A4 [2] [%] | SMILES | further results
1 | 785 | – | [2H]C([2H])([2H])N1C[C@H](F)C[C@H]1[C@H](C)Oc1cc(N2CCN(C([2H])([2H])[2H])C3(CC3)C2)nc(-c2noc3c2CCC[C@@]32CCCc3sc(N)c(C#N)c32)n1 [II-207] | –
2 | 51 | – | CO[C@H]1CCN(C)[C@@H]1[C@H](C)Oc1cc(-n2ccc(C(=O)N(C)C3COC3)n2)nc(-c2noc3c2CCC[C@@]32CCCc3sc(N)c(C#N)c32)n1 [II-199] | –
3 | 22 | – | C[C@H](Oc1cc(-n2ccc(-c3cn([C@@H]4CCOC4)nn3)n2)nc(-c2noc3c2CCC[C@@]32CCCc3sc(N)c(C#N)c32)n1)[C@@H]1CCCN1C [II-211] | –
4 | 260 | – | CO[C@H]1CCN(C)[C@@H]1[C@H](C)Oc1cc(N2CCN(C)C3(CC3)C2)nc(-c2noc3c2CCC[C@@]32CCCc3sc(N)c(C#N)c32)n1 [II-186] | IC50 [1, 4]: 313 nM
5 | – | 74 | C[C@H](Oc1cc(-c2ccn(C[C@H]3CCOC3)n2)nc(-c2noc3c2CCC[C@@]32CCCc3sc(N)c(C#N)c32)n1)[C@@H]1CCCN1C [II-129] | –
6 | – | 70 | CC(C)N1CCCN(c2cc(-c3ccn(C)n3)nc(-c3noc4c3CCC[C@@]43CCCc4sc(N)c(C#N)c43)n2)[C@@H](C)C1 [II-170] | –
7 | 17 | – | C[C@H](Oc1cc(-n2ccc(-c3cn([C@H]4CCOC4)nn3)n2)nc(-c2noc3c2CCC[C@@]32CCCc3sc(N)c(C#N)c32)n1)[C@@H]1CCCN1C [II-212] | –
8 | 14 | – | CO[C@H]1CCN(C)[C@@H]1[C@H](C)Oc1cc(-n2ccc(C(N)=O)n2)nc(-c2noc3c2CCC[C@@]32CCCc3sc(N)c(C#N)c32)n1 [II-201] | IC50 [1, 5]: 20 nM
9 | – | 58 | C[C@H](Oc1cc(-n2cncn2)nc(-c2onc3c2CCC[C@@]32CCCc3sc(N)c(C#N)c32)n1)[C@@H]1CCCN1C [I-18] | –
10 | 68 | – | CO[C@H]1CCN(C)[C@@H]1[C@H](C)Oc1cc(N2CCNC3(CC3)C2)nc(-c2noc3c2CCC[C@@]32CCCc3sc(N)c(C#N)c32)n1 [II-184] | IC50 [1, 4]: 227 nM
11 | – | 70 | C[C@H](Oc1cc(-n2cc(C(=O)N(C)C)nn2)nc(-c2noc3c2CCC[C@@]32CCCc3sc(N)c(C#N)c32)n1)[C@@H]1CCCN1C [II-132] | –
12 | 357 | – | CO[C@@H]1C[C@@H]([C@H](C)Oc2cc(N3CCNC4(CC4)C3)nc(-c3noc4c3CCC[C@@]43CCCc4sc(N)c(C#N)c43)n2)N(C)C1 [II-187] | IC50 [1, 4]: 383 nM
13 | 12 | – | CC(C)NC(=O)Cc1ccn(-c2cc(O[C@@H](C)[C@@H]3CCCN3C)nc(-c3noc4c3CCC[C@@]43CCCc4sc(N)c(C#N)c43)n2)n1 [II-182] | IC50 [1, 5]: 24 nM
14 | 63 | – | C[C@H](Oc1cc(-n2cc3ccn([C@@H]4CCOC4)c(=O)c3n2)nc(-c2noc3c2CCC[C@@]32CCCc3sc(N)c(C#N)c32)n1)[C@@H]1CCCN1C [II-203] | IC50 [1, 4]: 41 nM
15 | – | 83 | C[C@H](Oc1cc(-n2cncc3ccnc2-3)nc(-c2onc3c2CCC[C@@]32CCCc3sc(N)c(C#N)c32)n1)[C@@H]1CCCN1C [I-14] | –
16 | 15 | – | CO[C@H]1CCN(C)[C@@H]1[C@H](C)Oc1cc(-n2ccc(C(=O)N[C@H]3CCOC3)n2)nc(-c2noc3c2CCC[C@@]32CCCc3sc(N)c(C#N)c32)n1 [II-198] | –
17 | 33 | – | C[C@H](Oc1cc(-n2cc3ccn([C@@H](C)c4ccccn4)c(=O)c3n2)nc(-c2noc3c2CCC[C@@]32CCCc3sc(N)c(C#N)c32)n1)[C@@H]1CCCN1C [II-205] | –
18 | 25 | – | C[C@H](Oc1cc(-n2ccc(C(=O)N(C)C3COC3)n2)nc(-c2noc3c2CCC[C@@]32CCCc3sc(N)c(C#N)c32)n1)[C@@H]1CCCN1C [II-194] | IC50 [1, 5]: 20 nM

Row | IC50 [1, 3] [nM] | MBI 3A4 [2] [%] | SMILES | further results
19 | 27 | – | C[C@H](Oc1cc(-n2cc3ccn([C@H]4CCOC4)c(=O)c3n2)nc(-c2noc3c2CCC[C@@]32CCCc3sc(N)c(C#N)c32)n1)[C@@H]1CCCN1C [II-202] | –
20 | – | 76 | C[C@H](O)Cn1ncc(-c2cc(O[C@@H](C)[C@@H]3CCCN3C)nc(-c3noc4c3CCC[C@@]43CCCc4sc(N)c(C#N)c43)n2)n1 [II-134] | –
21 | – | 49 | CO[C@@H]1C[C@@H]([C@H](C)Oc2cc(N3CCN(C)C4(COC4)C3)nc(-c3noc4c3CCC[C@@]43CCCc4sc(N)c(C#N)c43)n2)N(C)C1 [II-153] | –
22 | – | 74 | C[C@H](Oc1cc(-c2ccn([C@H]3CCOC3)n2)nc(-c2noc3c2CCC[C@@]32CCCc3sc(N)c(C#N)c32)n1)[C@@H]1CCCN1C [II-127] | –
23 | – | 66 | CC(C)N1CCCN(c2cc(-n3ccnc3)nc(-c3noc4c3CCC[C@@]43CCCc4sc(N)c(C#N)c43)n2)[C@@H](C)C1 [II-169] | –
24 | 34 | – | C[C@H](Oc1cc(-n2cc3ccn(C4CCOCC4)c(=O)c3n2)nc(-c2noc3c2CCC[C@@]32CCCc3sc(N)c(C#N)c32)n1)[C@@H]1CCCN1C [II-206] | –
25 | – | 56 | C[C@H](Oc1cc(-n2cnc(C(=O)N(C)C)c2)nc(-c2noc3c2CCC[C@@]32CCCc3sc(N)c(C#N)c32)n1)[C@@H]1CCCN1C [II-126] | –
26 | 679 | 48 | C[C@H](Oc1cc(N2CCNC[C@@]23CCOC3)nc(-c2onc3c2CCC[C@@]32CCCc3sc(N)c(C#N)c32)n1)[C@@H]1CCCN1C [I-13] | –
27 | – | 82 | C[C@H](Oc1cc(N2C[C@H](C)N(C)[C@@H](C)C2)nc(-c2noc3c2CCC[C@@]32CCCc3sc(N)c(C#N)c32)n1)[C@@H]1CCCN1C [II-173] | –
28 | – | 60 | C[C@H](Oc1cc(-c2ccn(C)n2)nc(-c2noc3c2CCC[C@@]32CCCc3sc(N)c(C#N)c32)n1)[C@@H]1C[C@H](F)CN1C [II-144] | –
29 | 16 | – | CO[C@H]1CCN(C)[C@@H]1[C@H](C)Oc1cc(-n2ccc(C(=O)N[C@@H]3CCOC3)n2)nc(-c2noc3c2CCC[C@@]32CCCc3sc(N)c(C#N)c32)n1 [II-197] | –
30 | 1900 | – | CCN1CCN(c2cc(O[C@@H](C)[C@@H]3C[C@@H](F)CN3C)nc(-c3noc4c3CCC[C@@]43CCCc4sc(N)c(C#N)c43)n2)CC12CC2 [II-185] | IC50 [1, 4]: > 949 nM
31 | 12 | – | C[C@H](Oc1cc(-n2ccc(-c3cn(CC4(C)COC4)nn3)n2)nc(-c2noc3c2CCC[C@@]32CCCc3sc(N)c(C#N)c32)n1)[C@@H]1CCCN1C [II-213] | –
32 | 48 | – | C[C@H](Oc1cc(-n2cc3ccn(C[C@H]4CCOC4)c(=O)c3n2)nc(-c2noc3c2CCC[C@@]32CCCc3sc(N)c(C#N)c32)n1)[C@@H]1CCCN1C [II-204] | IC50 [1, 4]: 33 nM
33 | 11 | – | COCCNC(=O)c1ccn(-c2cc(O[C@@H](C)[C@@H]3[C@@H](OC)CCN3C)nc(-c3noc4c3CCC[C@@]43CCCc4sc(N)c(C#N)c43)n2)n1 [II-200] | –
34 | – | 56 | C[C@H](Oc1cc(N2CCNC[C@]23CCOC3)nc(-c2onc3c2CCC[C@@]32CCCc3sc(N)c(C#N)c32)n1)[C@@H]1CCCN1C [I-12] | –
35 | – | 60 | C[C@H](Oc1cc(-c2ccn(Cc3ncco3)n2)nc(-c2noc3c2CCC[C@@]32CCCc3sc(N)c(C#N)c32)n1)[C@@H]1CCCN1C [II-128] | –
36 | 41 | – | CO[C@H]1CCN(C)[C@@H]1[C@H](C)Oc1cc(-n2ccc(CC(=O)NC(C)C)n2)nc(-c2noc3c2CCC[C@@]32CCCc3sc(N)c(C#N)c32)n1 [II-183] | –
